# Columns and labels:
# [1] = test system: Human immunodeficiency virus 1; test: In vitro inhibition of spread of viral infection using 4X mutant virus; assay type: functional; details: read-out: CIC95
# [2] = test system: MT4; test: Concentration required to inhibit the spread of viral infection in MT-4 human T-lymphoid cells infected by the NL4-3 virus; assay type: functional; details: read-out: CIC95
# [3] = biological target: T1, Human immunodeficiency virus type 1 protease (Human immunodeficiency virus 1, UniProt Q72874); test: Inhibitory concentration required to inhibit cleavage of a substrate by thewild-type HIV-1 protease enzyme
# [4] = biological target: T1, Human immunodeficiency virus type 1 protease; test: Inhibitory concentration against wild-type HIV-1 protease
# [5] = test system: Human immunodeficiency virus 1; test: Potency against PI-resistant viral isolate construct HIV V-18C; assay type: functional; details: read-out: CIC95
# [6] = biological target: Cytochrome P450 3A4 (Homo sapiens, UniProt P08684); test: Inhibition of cytochrome P450 3A4; assay type: ADME
# Cytochrome P450 3A4, sequence (P08684 whole entry): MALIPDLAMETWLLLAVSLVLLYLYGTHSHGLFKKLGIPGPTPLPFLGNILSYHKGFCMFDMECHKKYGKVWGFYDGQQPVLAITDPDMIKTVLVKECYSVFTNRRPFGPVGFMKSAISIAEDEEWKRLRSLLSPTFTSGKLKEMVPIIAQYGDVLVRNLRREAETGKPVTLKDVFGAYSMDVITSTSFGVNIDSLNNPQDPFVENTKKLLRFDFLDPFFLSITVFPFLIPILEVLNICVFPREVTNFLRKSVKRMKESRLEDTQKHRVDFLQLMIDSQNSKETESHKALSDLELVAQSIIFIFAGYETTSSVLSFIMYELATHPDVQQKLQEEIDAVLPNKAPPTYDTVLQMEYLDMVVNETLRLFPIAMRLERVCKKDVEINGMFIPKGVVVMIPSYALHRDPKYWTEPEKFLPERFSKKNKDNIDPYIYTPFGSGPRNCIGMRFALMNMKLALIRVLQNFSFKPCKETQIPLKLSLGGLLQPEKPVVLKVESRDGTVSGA
# [7] = Plasma clearance in dogs administered perorally (5 mg/kg) and intravenously (2 mg/kg); assay type: ADME, organism-based, Canis lupus familiaris; details: dog, iv, read-out: Clp
# [8] = test system: Human immunodeficiency virus 1; test: Potency against PI-resistant virus HIV 4X; assay type: functional; details: read-out: CIC95
# [9] = Maximum concentration in dogs administered perorally (5 mg/kg) and intravenously (2 mg/kg); assay type: ADME, organism-based, Canis lupus familiaris; details: dog, in vivo, po
# [10] = test system: Human immunodeficiency virus 1; test: Potency against PI-resistant virus HIV NL-4; assay type: functional; details: read-out: CIC95
# [11] = test system: Human immunodeficiency virus 1; test: Potency against PI-resistant viral isolate construct HIV K-60C; assay type: functional; details: read-out: CIC95
# [12] = Intrinsic clearance in human liver microsomes; assay type: ADME, Microsome
# [13] = biological target: Cytochrome P450 2D6 (Homo sapiens, UniProt P10635); test: Inhibition of cytochrome P450 2D6; assay type: ADME
# Cytochrome P450 2D6, sequence (P10635 whole entry): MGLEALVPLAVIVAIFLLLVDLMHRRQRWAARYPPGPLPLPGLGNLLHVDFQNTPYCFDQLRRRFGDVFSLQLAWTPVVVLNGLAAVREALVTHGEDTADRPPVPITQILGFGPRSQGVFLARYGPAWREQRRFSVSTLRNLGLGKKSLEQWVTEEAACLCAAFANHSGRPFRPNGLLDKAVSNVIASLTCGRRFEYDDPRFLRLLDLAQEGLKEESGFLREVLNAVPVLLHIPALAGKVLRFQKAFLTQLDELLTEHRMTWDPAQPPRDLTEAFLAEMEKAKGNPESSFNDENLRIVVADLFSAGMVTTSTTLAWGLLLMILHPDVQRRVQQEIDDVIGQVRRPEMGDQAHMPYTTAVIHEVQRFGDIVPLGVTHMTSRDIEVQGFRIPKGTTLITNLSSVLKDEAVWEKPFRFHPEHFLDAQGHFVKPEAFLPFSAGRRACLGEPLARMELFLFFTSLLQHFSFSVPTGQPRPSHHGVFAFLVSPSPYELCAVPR
# [14] = Area under curve in dogs administered perorally (5 mg/kg) and intravenously (2 mg/kg); assay type: ADME, organism-based, Canis lupus familiaris; details: dog, in vivo
# [15] = Half life in dogs administered perorally (5 mg/kg) and intravenously (2 mg/kg); assay type: ADME, organism-based, Canis lupus familiaris; details: dog, in vivo
# [16] = test system: Human immunodeficiency virus 1; test: Potency against PI-resistant viral isolate construct HIV Q-60C; assay type: functional; details: read-out: CIC95
# [17] = Bioavailability in dog (dose 5 mg/kg p.o. and 2 mg/kg i.v.); assay type: ADME, organism-based, Canis lupus familiaris; details: in vivo, po
Structure (SMILES),IC95 [1] [nM],IC95 [2] [nM],IC50 [4] [nM],other results
CC(C)(c1cc2cnccc2o1)N1CCN(C[C@@H](O)C[C@@H](Cc2ccccc2)C(=O)N[C@H]2c3ccccc3OC[C@H]2O)[C@H](C(=O)NCc2cccs2)C1,125,94,–,IC50 [3]: 0.65 nM
CC(C)(c1cc2cnccc2o1)N1CCN(C[C@@H](O)C[C@@H](Cc2ccccc2)C(=O)N[C@H]2c3ccccc3OC[C@H]2O)[C@H](C(=O)NC2CCCC2)C1,31,≤ 8,0.37,–
CC(C)(c1cc2cnccc2o1)N1CCN(C[C@@H](O)C[C@@H](Cc2ccccc2)C(=O)N[C@H]2c3ccccc3OC[C@H]2O)[C@H](C(=O)NCC(F)(F)F)C1,≤ 8,≤ 8,0.07,IC95 [5]: 62 nM; IC50 [6]: 30 nM; clearance [7]: 4.01 mL/min/kg; IC95 [8]: ≤ 8 nM; Cmax [9]: 17 µM; IC95 [10]: ≤ 8 nM; IC95 [11]: 250 nM; CLint scaled [12]: 22 mL/min/kg; IC50 [13]: 520 nM; AUC [14]: 18.8 µM·h; half-life [15]: 52 min; IC95 [16]: 62 nM; bioavailability [17]: 65%
CC(C)(c1cc2cnccc2o1)N1CCN(C[C@@H](O)C[C@@H](Cc2ccccc2)C(=O)N[C@H]2c3ccccc3OC[C@H]2O)[C@H](C(=O)NC2CC2)C1,250,62,0.6,–
CC(C)(C)NC(=O)[C@@H]1CN(C(C)(C)c2cc3cnccc3o2)CCN1C[C@@H](O)C[C@@H](Cc1ccccc1)C(=O)N[C@H]1c2ccccc2OC[C@H]1O,31,≤ 8,0.08,IC95 [5]: 125 nM; IC50 [6]: 310 nM; clearance [7]: 14.2 mL/min/kg; IC95 [8]: 16 nM; Cmax [9]: 8.8 µM; IC95 [10]: 9.2 nM; IC95 [11]: 500 nM; CLint scaled [12]: 34 mL/min/kg; IC50 [13]: 2430 nM; IC95 [16]: 125 nM
CCNC(=O)[C@@H]1CN(C(C)(C)c2cc3cnccc3o2)CCN1C[C@@H](O)C[C@@H](Cc1ccccc1)C(=O)N[C@H]1c2ccccc2OC[C@H]1O,62,31,0.61,–
CC(C)(C)NC(=O)[C@@H]1CN(Cc2cccnc2)CCN1C[C@@H](O)C[C@@H](Cc1ccccc1)C(=O)N[C@H]1c2ccccc2C[C@H]1O,–,–,–,IC95 [5]: > 1000 nM; IC95 [8]: 400 nM; IC95 [10]: 50 nM; IC95 [11]: > 1000 nM; IC95 [16]: > 1000 nM
CC(C)(c1cc2cnccc2o1)N1CCN(C[C@@H](O)C[C@@H](Cc2ccccc2)C(=O)N[C@H]2c3ccccc3OC[C@H]2O)[C@H](C(=O)NCc2ccccc2)C1,250,125,2.19,–
CC(C)(c1cc2cnccc2o1)N1CCN(C[C@@H](O)C[C@@H](Cc2ccccc2)C(=O)N[C@H]2c3ccccc3OC[C@H]2O)[C@H](C(=O)NCC(F)(F)C(F)(F)F)C1,62,≤ 8,0.14,–
CC(C)CNC(=O)[C@@H]1CN(C(C)(C)c2cc3cnccc3o2)CCN1C[C@@H](O)C[C@@H](Cc1ccccc1)C(=O)N[C@H]1c2ccccc2OC[C@H]1O,125,15,0.4,–
O=C(N[C@H]1c2ccccc2C[C@H]1O)[C@H](Cc1ccccc1)C[C@H](O)CN1CCN(Cc2cccnc2)C[C@H]1C(=O)NCC(F)(F)F,–,–,–,IC95 [5]: 500 nM; IC95 [8]: 125 nM; IC95 [10]: 62 nM; IC95 [11]: > 1000 nM; IC95 [16]: 62 nM
CC(C)(c1cc2cnccc2o1)N1CCN(C[C@@H](O)C[C@@H](Cc2ccccc2)C(=O)N[C@H]2c3ccccc3OC[C@H]2O)[C@H](C(=O)NCCC(F)(F)F)C1,500,62,1.6,–
CC(C)(c1cc2cnccc2o1)N1CCN(C[C@@H](O)C[C@@H](Cc2ccccc2)C(=O)N[C@H]2c3ccccc3OC[C@H]2O)[C@H](C(=O)NCC2CC2)C1,125,46,0.5,–
CC(C)(c1cc2cnccc2o1)N1CCN(C[C@@H](O)C[C@@H](Cc2ccccc2)C(=O)N[C@H]2c3ccccc3OC[C@H]2O)[C@H](C(=O)Nc2ccccc2)C1,> 1000,250,13.8,–
CC(C)(C)CNC(=O)[C@@H]1CN(C(C)(C)c2cc3cnccc3o2)CCN1C[C@@H](O)C[C@@H](Cc1ccccc1)C(=O)N[C@H]1c2ccccc2OC[C@H]1O,500,31,1.16,–
